Laboratory results reported in ChEMBL document CHEMBL1201862, “PubChem BioAssay data set” (2004).
Calls of active or inactive are those of the source.

Legend:
Format in all cases: functional
Caspase-3 = target: T1, Caspase-3 (Homo sapiens, UniProt P42574); assay: SAR Analysis of small molecule inhibitors of Sentrin-specific proteases (SENPs) using a Caspase-3 Selectivity assay. [Related pubchem assays (depositor defined):AID2540, AID2599, AID434973, AID489001]
T1 sequence (P42574 whole entry): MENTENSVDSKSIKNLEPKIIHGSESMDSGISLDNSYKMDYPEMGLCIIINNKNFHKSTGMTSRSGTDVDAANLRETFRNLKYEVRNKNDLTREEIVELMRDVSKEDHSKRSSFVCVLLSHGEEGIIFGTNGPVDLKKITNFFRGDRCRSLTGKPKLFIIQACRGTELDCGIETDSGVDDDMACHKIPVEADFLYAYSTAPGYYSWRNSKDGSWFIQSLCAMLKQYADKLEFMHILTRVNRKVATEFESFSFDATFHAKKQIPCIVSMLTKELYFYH

[1] = target: T2, Sentrin-specific protease 8 (Homo sapiens, UniProt Q96LD8); assay: inhibition of human SENP8 cleavage activity – biochemical, luminescence, SAR follow-up (AID 504501)
T2 sequence (Q96LD8 whole entry): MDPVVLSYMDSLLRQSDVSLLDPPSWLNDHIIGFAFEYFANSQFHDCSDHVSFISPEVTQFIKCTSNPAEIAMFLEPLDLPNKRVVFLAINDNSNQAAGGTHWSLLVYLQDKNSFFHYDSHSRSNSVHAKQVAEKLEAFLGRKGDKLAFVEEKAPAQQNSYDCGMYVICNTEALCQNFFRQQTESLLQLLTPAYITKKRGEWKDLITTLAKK

[2] = target: T3, Sentrin-specific protease 6 (Homo sapiens, UniProt Q9GZR1); assay: SAR Analysis of small molecule inhibitors of Sentrin-specific protease 6 (SENP6) using a Luminescent assay. [Related pubchem assays (depositor defined):AID2582, AID2599]
T3 sequence (Q9GZR1 whole entry): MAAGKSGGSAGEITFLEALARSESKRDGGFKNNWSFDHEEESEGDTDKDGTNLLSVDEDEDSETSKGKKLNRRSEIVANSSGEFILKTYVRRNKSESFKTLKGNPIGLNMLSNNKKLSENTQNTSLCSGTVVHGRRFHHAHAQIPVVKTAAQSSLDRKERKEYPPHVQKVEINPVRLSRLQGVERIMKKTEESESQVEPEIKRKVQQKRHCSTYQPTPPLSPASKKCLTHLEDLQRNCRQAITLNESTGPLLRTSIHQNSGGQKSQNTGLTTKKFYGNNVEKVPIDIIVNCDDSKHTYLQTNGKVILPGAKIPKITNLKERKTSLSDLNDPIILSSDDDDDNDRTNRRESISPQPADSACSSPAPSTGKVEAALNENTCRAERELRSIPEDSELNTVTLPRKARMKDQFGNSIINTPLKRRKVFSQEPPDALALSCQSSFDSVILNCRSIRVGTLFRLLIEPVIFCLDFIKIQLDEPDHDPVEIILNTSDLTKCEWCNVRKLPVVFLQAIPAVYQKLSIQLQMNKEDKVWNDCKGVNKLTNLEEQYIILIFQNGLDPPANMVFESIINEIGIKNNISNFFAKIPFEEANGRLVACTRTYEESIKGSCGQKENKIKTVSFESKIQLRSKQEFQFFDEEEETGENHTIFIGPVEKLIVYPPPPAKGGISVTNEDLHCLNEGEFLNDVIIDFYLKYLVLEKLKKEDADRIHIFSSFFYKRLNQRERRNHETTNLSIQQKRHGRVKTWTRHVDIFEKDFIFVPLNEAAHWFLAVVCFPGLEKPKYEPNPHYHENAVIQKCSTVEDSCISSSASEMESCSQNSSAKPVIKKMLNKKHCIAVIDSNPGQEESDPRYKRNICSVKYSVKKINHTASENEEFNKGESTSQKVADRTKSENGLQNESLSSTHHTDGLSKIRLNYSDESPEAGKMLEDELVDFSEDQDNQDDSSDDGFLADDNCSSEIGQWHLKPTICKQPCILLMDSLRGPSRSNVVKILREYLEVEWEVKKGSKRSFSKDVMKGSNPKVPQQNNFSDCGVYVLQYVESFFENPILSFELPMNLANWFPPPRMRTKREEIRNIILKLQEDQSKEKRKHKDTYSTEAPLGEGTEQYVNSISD

[3] = target: T4, Sentrin-specific protease 7 (Homo sapiens, UniProt Q9BQF6); assay: inhibition of human SENP7 cleavage activity – biochemical, luminescence, SAR follow-up (AID 504497)
T4 sequence (Q9BQF6 whole entry): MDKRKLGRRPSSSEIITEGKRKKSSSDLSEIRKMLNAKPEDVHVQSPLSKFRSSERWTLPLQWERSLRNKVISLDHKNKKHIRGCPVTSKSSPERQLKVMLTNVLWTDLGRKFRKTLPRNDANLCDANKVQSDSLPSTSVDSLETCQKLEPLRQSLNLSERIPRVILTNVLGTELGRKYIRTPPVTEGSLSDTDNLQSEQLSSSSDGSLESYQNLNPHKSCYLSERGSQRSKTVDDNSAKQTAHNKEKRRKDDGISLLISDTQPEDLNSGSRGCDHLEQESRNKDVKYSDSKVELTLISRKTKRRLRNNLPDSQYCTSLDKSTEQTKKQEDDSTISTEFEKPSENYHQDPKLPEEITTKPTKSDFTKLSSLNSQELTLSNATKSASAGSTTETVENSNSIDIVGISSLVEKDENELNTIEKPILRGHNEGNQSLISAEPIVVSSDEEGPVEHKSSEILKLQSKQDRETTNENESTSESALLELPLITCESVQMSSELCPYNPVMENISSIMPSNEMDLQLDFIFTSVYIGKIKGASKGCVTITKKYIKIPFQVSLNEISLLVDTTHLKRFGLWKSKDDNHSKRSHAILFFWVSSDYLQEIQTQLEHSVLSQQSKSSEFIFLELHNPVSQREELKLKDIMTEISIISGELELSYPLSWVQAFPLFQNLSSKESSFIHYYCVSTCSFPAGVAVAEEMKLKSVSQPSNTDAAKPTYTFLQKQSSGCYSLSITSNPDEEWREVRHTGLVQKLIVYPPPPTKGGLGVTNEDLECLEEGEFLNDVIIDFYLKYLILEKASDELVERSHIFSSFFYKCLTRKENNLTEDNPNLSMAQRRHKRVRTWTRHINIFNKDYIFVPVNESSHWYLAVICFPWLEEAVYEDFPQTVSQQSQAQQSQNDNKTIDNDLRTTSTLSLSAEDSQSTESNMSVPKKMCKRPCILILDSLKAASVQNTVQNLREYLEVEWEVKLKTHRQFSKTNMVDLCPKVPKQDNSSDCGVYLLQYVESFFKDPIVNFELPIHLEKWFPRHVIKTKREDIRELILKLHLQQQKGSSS

[4] = target: T5, High affinity choline transporter 1 (Homo sapiens, UniProt Q9GZV3); assay: human choline transporter potentiators, potency – cell-based, 10-point CRC, membrane potential dye, dose response (AID 602376)
T5 sequence (Q9GZV3 whole entry): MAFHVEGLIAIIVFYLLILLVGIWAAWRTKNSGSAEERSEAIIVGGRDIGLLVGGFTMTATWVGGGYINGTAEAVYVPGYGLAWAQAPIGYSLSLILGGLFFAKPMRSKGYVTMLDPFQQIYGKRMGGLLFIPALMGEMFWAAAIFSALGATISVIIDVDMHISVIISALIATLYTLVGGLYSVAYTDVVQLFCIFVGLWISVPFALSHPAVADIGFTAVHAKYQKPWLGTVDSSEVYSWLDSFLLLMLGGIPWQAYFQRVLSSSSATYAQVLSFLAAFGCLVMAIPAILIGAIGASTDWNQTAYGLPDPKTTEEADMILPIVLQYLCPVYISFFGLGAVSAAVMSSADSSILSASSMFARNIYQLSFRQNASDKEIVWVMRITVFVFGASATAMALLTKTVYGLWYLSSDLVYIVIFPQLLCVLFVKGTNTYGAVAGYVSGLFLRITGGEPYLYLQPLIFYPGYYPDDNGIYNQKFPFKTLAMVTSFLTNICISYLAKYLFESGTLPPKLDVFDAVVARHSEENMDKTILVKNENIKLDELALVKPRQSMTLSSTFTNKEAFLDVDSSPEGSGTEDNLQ

[5] = HepG2 cell cytotoxicity, cytotoxicity control, set 6 (AID 602432); conditions: Mycobacterium tuberculosis
[6] = THP-1 cell cytotoxicity, cytotoxicity control, set 6 (AID 602433); conditions: Mycobacterium tuberculosis
[7] = viability loss in Vero cells – cell-based, purified and synthesized samples, set 8, cytotoxicity control for M. tuberculosis inhibitor project (AID 602431); conditions: Mycobacterium tuberculosis
[8] = target: Vascular endothelial growth factor receptor 2 (Homo sapiens, UniProt P35968)
Vascular endothelial growth factor receptor 2, sequence (P35968 whole entry): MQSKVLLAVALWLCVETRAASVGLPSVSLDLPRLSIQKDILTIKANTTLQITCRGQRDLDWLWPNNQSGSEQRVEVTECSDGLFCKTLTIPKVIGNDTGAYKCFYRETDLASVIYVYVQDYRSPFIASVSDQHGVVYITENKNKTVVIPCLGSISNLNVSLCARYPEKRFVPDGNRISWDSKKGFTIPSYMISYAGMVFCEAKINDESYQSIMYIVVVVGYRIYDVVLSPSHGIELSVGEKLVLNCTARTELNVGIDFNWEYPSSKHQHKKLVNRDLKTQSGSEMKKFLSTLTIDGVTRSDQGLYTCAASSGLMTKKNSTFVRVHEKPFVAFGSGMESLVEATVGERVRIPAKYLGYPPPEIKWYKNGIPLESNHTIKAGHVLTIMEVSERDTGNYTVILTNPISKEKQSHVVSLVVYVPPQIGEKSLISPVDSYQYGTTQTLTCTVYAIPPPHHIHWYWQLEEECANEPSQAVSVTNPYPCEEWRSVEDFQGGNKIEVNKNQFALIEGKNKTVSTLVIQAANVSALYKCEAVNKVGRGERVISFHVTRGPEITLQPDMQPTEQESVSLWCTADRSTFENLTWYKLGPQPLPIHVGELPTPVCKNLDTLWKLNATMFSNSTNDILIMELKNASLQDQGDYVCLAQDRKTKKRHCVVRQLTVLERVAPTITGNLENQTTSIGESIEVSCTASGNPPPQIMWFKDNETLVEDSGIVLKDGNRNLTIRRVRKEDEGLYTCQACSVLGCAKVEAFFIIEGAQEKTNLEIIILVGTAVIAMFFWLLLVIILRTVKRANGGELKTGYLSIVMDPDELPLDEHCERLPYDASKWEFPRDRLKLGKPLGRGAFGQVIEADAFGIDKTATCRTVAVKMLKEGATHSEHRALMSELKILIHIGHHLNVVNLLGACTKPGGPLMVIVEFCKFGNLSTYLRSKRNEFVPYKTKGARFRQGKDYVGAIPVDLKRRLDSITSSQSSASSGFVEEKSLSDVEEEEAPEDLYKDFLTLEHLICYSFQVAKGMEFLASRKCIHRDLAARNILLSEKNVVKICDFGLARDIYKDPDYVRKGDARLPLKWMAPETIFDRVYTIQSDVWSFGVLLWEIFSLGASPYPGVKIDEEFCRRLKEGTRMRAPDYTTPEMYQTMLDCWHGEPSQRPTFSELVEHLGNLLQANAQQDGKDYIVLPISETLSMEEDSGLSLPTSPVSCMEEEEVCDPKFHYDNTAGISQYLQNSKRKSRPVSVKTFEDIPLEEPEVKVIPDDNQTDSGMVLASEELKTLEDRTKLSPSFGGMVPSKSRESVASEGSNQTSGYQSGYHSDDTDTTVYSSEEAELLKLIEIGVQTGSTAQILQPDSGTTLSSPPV

Aurora kinase B = Aurora kinase B (Homo sapiens, UniProt Q96GD4)
Aurora kinase B, sequence (Q96GD4 whole entry): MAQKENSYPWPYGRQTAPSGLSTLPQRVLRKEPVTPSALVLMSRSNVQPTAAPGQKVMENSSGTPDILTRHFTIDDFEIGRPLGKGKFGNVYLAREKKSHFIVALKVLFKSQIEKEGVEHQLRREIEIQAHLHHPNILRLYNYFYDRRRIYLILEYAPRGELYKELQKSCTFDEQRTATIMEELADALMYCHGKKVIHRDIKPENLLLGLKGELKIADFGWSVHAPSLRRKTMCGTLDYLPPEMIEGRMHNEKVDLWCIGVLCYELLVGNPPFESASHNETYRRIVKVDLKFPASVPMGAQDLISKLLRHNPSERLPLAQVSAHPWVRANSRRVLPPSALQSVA

Aurora kinase A = Aurora kinase A (Homo sapiens, UniProt O14965);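 also: value from the Navigating the Kinome kinase panel profiling, panel entry STK6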
Aurora kinase A, sequence (O14965 whole entry): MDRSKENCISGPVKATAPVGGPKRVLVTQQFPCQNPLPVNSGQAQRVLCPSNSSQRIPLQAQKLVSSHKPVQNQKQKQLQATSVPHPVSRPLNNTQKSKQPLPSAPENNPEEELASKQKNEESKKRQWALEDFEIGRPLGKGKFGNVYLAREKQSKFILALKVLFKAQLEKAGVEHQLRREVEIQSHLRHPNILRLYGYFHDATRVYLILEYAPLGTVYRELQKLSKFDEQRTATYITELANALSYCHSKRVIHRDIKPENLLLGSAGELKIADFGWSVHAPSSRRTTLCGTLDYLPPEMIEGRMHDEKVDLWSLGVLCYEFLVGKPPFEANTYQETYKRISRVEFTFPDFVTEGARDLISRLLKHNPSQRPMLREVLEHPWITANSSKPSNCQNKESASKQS

[9] = target: High affinity nerve growth factor receptor (Homo sapiens, UniProt P04629);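 also: NTRK1 tested as one member of a kinome-wide profiling panel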
High affinity nerve growth factor receptor, sequence (P04629 whole entry): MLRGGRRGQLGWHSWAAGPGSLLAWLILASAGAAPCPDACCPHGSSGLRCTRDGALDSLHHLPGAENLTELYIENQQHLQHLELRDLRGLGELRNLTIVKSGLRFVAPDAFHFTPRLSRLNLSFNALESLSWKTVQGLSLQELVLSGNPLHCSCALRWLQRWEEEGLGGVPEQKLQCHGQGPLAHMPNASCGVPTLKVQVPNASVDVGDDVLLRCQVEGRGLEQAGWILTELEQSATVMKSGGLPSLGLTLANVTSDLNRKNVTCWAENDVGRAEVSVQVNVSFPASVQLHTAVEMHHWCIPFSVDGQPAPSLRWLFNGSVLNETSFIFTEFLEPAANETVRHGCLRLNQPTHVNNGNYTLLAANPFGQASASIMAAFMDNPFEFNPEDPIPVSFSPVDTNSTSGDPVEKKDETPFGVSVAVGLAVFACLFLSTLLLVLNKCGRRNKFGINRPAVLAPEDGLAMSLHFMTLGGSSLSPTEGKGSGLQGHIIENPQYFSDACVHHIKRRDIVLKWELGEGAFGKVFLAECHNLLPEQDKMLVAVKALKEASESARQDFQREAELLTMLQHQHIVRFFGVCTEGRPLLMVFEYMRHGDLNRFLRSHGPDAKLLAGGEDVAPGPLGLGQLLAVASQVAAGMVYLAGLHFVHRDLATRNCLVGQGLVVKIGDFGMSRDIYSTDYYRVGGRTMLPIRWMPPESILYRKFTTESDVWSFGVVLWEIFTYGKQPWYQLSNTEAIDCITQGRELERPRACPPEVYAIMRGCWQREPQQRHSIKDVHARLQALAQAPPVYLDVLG

## CC(C)(C)CC(=O)Nc1ccc(-c2nc3cc(Cl)ccc3s2)cc1
Caspase-3
  IC50: > 99 µM (inactive)
[1]
  IC50: > 99 µM (inactive)
[2]
  IC50: > 99 µM (inactive)
[3]
  IC50: > 99 µM (inactive)

## CC(C)C(=O)N1CCN(c2ccccc2NC(=O)c2ccc(C#N)cc2F)CC1
[4]
  EC50: 12.9 µM (active)

## COc1ccc(N2CCN(C(=O)c3ccc(CNC(=O)NCc4ccc(Cl)cc4)cc3)CC2)cc1
[5]
  CC50: > 50 µM (active)
[6]
  CC50: > 100 µM (inconclusive)
[7]
  CC50: 29.4 µM (active)

## CCS(=O)(=O)c1ccc(-c2ccc(-c3n[nH]c4c3Cc3cc(O)c(OC)cc3-4)cc2)cc1
[8]
  Ki: 1.26 µM (active)
Aurora kinase B
  Ki: 0.000794 µM (active)
Aurora kinase A
  Ki: 0.794 µM (active)
[9]
  Ki: 3.98 µM (active)
